The values below come from US6534073B2, “Skin care cosmetic compositions containing carboxymethylates of branched alcohols and/or ethoxylates thereof” (Unilever Home & Personal Care USA division of Conopco, Inc., priority 2000, dated 2003).

One experiment relates to human sebocytes. Kind of experiment: Inhibition of sebocyte lipogenesis (14C-acetate incorporation). The class given is cell-based. To be noted: for inhibition of lipogenesis (result in words): summary of Tables 2 and 3. As for the experimental part:
This example provided data on inhibition of sebocyte lipogenesis.
Secondary cultures of human sebocytes obtained from an adult […] were grown in 48-well tissue culture plates (Costar Corp.; Cambridge, Mass.) or 96-well tissue culture plates (Packard Co.; Meriden, Conn.) until confluent. Sebocyte growth medium consisted of Clonetics Keratinocyte Basal Medium (KBM) 5 supplemented with 14 μg/ml bovine pituitary extract, 0.4 μg/ml hydrocortisone, 5 μg/ml insulin, 10 ng/ml epidermal growth factor, 1.2×10^−10 M cholera toxin, 100 units/ml penicillin, and 100 μg/ml streptomycin. All cultures were incubated at 37° C. in the presence of 7.5% CO2. Medium was changed three times per week.
On the day of experimentation, the growth medium was removed and the sebocytes washed three times with sterile Dulbecco's Modified Eagle Medium (DMEM; phenol red free). Fresh DMEM was added to each sample (duplicates, triplicates, or quadruplicates depending on the experiment) with 5 μL of test agent solubilized in ethanol or sterile, distilled water either alone or in the presence of one or 10 μM of retinol. Controls consisted of addition of ethanol alone, retinol alone or phenol red, which has estrogen-like activity and was included as a positive control.
Each plate was returned to the incubator for 20 hours followed by the addition of ^14C-acetate buffer (5 mM final concentration, 56 mCi/mmol specific activity). Sebocytes were returned to the incubator for four hours after which each culture was rinsed three times with phosphate buffered saline to remove unbound label. Radioactive label remaining in the sebocytes was harvested and counted using a Beckman scintillation counter.

In experiment [1] the test system is procollagen I production by neonatal human dermal fibroblasts. Kind of experiment: Procollagen I production by fibroblasts (slot blot, densitometry). Format: cell-based. Conditions: for Average OD Reading / Fold increase Over Control: Table 4; for Average OD Reading: procollagen I densitometer reading, control 0.783; for Fold increase Over Control / % Increase (+) or % decrease (−) over control: procollagen I; for % Increase (+) or % decrease (−) over control: positive control, concentration not given. As for the experimental part: This example measured production of procollagen I by fibroblasts in response to treatment with various straight chain and branched alcohols alone.
Neonatal human dermal fibroblasts were purchased from Clonetics Corp., San Diego, Calif. All materials for cell culture were purchased from Life Technologies, N.Y. (and used in passages 5-10). Cells were seeded at a density of approximately 10,000/well in the inner 48 wells of a 96-well plate in a medium containing DMEM (Dulbecco's Modified Eagle's Medium), high-glucose supplemented with 2 mM L-glutamine, 10% fetal bovine serum, and antibiotic and antimycotic solutions. Cells were then grown to confluence for 2 days. At confluence, the medium was removed and cells were washed with serum-free DMEM, and each well dosed with 200 μl of a solution of a test compound in serum-free DMEM. Each dosing was replicated in a total of six wells. […] After 24 hours, the test compound solution or the control solution was removed and cells redosed with 100 μl of a solution of a test compound in serum-free DMEM.
Nitrocellulose membrane and 3 sheets of filter paper were soaked in TRIS buffered saline (TBS, pH 7.3.). BioRad slot blot apparatus (BioRad Labs, CA) was set up with 3 sheets filter paper on bottom, membrane on top, and tightened. […] TBS was added per well. Vacuum was used to suck TBS through membrane. The test compound solution or control was vortexed, then 100 μl was loaded per well and gravity filtered. Procollagen from the test solution was bound to the membrane at this point in the procedure. Membrane was removed from the apparatus, excess cut off, and bottom right corner notched for orientation. The membrane was placed in blocking solution (5% milk powder in Dulbecco's phosphate buffered saline) overnight at 4° C., with shaking. The membrane was then incubated for 1.5 hrs at room temperature with 1.5 mL Rat Anti-Human Procollagen Amino-Terminal Ab (Chemicon MAB1912) in TBS with 0.1% BSA (Bovine Serum Albumin) (ratio of antibody to buffer/BSA was 1:100) in a sealed bag with shaking. The membrane was then removed; washed 3 times for 5 minutes in TBS/0.1% Tween. The membrane was then incubated for 1 hour at room temperature in 2 mL of Biotinylated Anti-Rat Peroxidase-Conjugated Ab (Vector Labs) in TBS with 0.1% BSA (ratio of antibody to buffer/BSA was 1:1000) in a sealed bag with shaking. The membrane was then stained using the following solution:
12.5 mg 3-amino 9-ethyl carbazole (Sigma)
3.125 (approximately) mL DMF (N,N-dimethylformamide, from Sigma)
The membrane was stained until color developed and the reaction stopped with 2 washes for 10 minutes in tap water. The blot was scanned on a Bio-Rad GS700 Image Analysis densitometer. Percent change from control was calculated from densitometer readings as follows: [(Reading for test compound-Reading for control)/Reading for control]*100. Control has a reading of 100%. Statistical significance (p value) was calculated using student's t-test.
TGF-B is a positive control, ensuring the integrity of the assay: transforming growth factor beta is known to increase procollagen I in fibroblasts.
This example measured production of procollagen I by fibroblasts in response to treatment with various test compounds.
The experiment was conducted as described in Example 1 above. Fold increase was calculated as a ratio of densitometer reading for cells treated with a test compound over control.

The mark [2] stands for this setting: Homo sapiens, Table 2, 14C-acetate label in sebocytes, read-out: % of Control.
Setting [3] is: Homo sapiens, Table 3, 14C-acetate label in sebocytes, read-out: % of Control.
Setting [4] is: Table 2, 14C-acetate label in sebocytes, 1 μM.
Where [5] appears, read: Table 2, 14C-acetate label in sebocytes, 10 μM.
The mark [6] stands for this setting: Table 2, 14C-acetate label in sebocytes, 100 μM.

Like-named read-outs stand apart in the source and are kept apart here. Marks after values point to notes of the source that are not given here.

With `O=S1(=O)OC(c2ccc(O)cc2)(c2ccc(O)cc2)c2ccccc21` [Phenol Red, reference compound], in the experiment with human sebocytes (setting [2]), the activity at 28 µM was 56.5% and the activity at 280 µM was determined as 43.3%. In the experiment with human sebocytes (setting [3]), the activity at 28 µM worked out at 92% and the activity at 280 µM is 61.7%.

As to `CC1=C(/C=C/C(C)=C/C=C/C(C)=C/CO)C(C)(C)CCC1` [Retinol, reference compound], the activity at 1 µM in the experiment with human sebocytes (Homo sapiens, Table 3, 14C-acetate label in sebocytes, 1 μM, read-out: % of Control) was 91.8%. The activity at 10 µM in the experiment with human sebocytes (Homo sapiens, Table 3, 14C-acetate label in sebocytes, 10 μM, read-out: % of Control) stood at 106%.

For the molecule “Iso-tridecyl carboxymethylate (sodium salt)”, the “% of Control” value in the experiment with human sebocytes (setting [4]) is listed as 81.5* %; in the experiment on human sebocytes (setting [5]), 49.6* %; in the experiment on human sebocytes (setting [6]) it was 1.2* %; in the experiment with human sebocytes (Table 3, 14C-acetate label in sebocytes, 1 μM), 75.8* %; in the experiment on human sebocytes (Table 3, 14C-acetate label in sebocytes, 10 μM), 66.0* %. For the same molecule, the “inhibition of lipogenesis (result in words)” value with human sebocytes is reported as “improved inhibition of lipogenesis”.

In the case of “TGF-B: transforming growth factor beta, positive control known to increase procollagen I in fibroblasts [reference compound]”, in experiment [1] (0.001%), the “Average OD Reading” value was 1.348 and the “Fold increase Over Control” value is on record as 1.72* Fold. The “% Increase (+) or % decrease (−) over control” value in experiment [1] (Table 1 Experiment 1) is recorded as “+50* %”. Also, the “% Increase (+) or % decrease (−) over control” value in experiment [1] (Table 1 Experiment 2) is on record as “+140* %”.

For iso-tridecyl carboxymethylate, the results for the “% of Control” value in the experiment on human sebocytes (setting [4]), with human sebocytes (setting [5]) and in the experiment with human sebocytes (setting [6]) were 80.0* %, 58.2* % and 1.4* %, respectively. For the same molecule, the “inhibition of lipogenesis (result in words)” value with human sebocytes was “enhanced inhibition of lipogenesis at all tested concentrations”. Besides, the results for the “Average OD Reading” value in experiment [1] (0.0001%) and in experiment [1] (0.001%) were 0.777 and 1.295, respectively. The “Fold increase Over Control” value in experiment [1] (0.0001%) is 0.99 Fold; in experiment [1] (0.001%), 1.65* Fold. For the same molecule, the “collagen synthesis by fibroblasts (result in words)” value in experiment [1] (summary of Tables 1 and 4) is recorded as “increased collagen production”.
